Assays:
Assay type in all cases: in vivo
Parameters in all cases: scale not given here
[1] = test system: Monochoria vaginalis (Murm. f.) Presl var. plantaginea (Roxb.) Solms-Laub.; assay: Herbicidal effect by paddy field soil treatment; conditions: wettable powder, active ingredient 1000 g/ha, examined at the 21st day from the treatment
Experimental: (§1) A paddy field soil was filled in a plastic pot of 100 cm^2 and subjected to puddling. Then, seeds of Echinochloa oryzicola Vasing and Monochoria vaginalis (Murm. f.) Presl var. plantaginea (Roxb.) Solms-Laub. were sowed and water was filled in a depth of 3 cm. Next day, wettable powders produced in accordance with the Formulation 1 were diluted with water and dropped on the water surface. The application amount of each wettable powder was 1,000 g per 1 hectare in terms of the active ingredient. Then, breeding was made in a greenhouse, and the herbicidal effect of each wettable powder was examined at the 21st day from the treatment in accordance with the standard shown in Table 21.

[2] = test system: Echinochloa oryzicola Vasing; assay: Herbicidal effect by paddy field soil treatment; conditions: wettable powder, active ingredient 1000 g/ha, examined at the 21st day from the treatment
Experimental: as §1

[3] = test system: Echinochloa crus-galli (L.) Beauv. var. crusgalli; assay: Herbicidal effect by upland field soil treatment; conditions: active ingredient 1000 g/ha, examined at 21st day from treatment
Source text: (§2) An upland field soil was filled in a plastic pot of 80 cm^2. Seeds of Echinochloa crus-galli (L.) Beauv. var. crusgalli and Setaria viridis (L.) Beauv. were sowed, followed by covering with the same soil. […] Then, breeding was made in a greenhouse, and the herbicidal effect of each wettable powder was examined at the 21st day from the treatment in accordance with the standard shown in Table 21.

[4] = test system: Setaria viridis (L.) Beauv.; assay: Herbicidal effect by upland field soil treatment; conditions: active ingredient 1000 g/ha, examined at 21st day from treatment
Source text: as §2

Structure (SMILES) | Herbicidal effect index, Monochoria vaginalis (Burm. F.) Presl var. plantaginea (Roxb.) Solms-Laub. [1] | Herbicidal effect index, Echinochloa oryzicola Vasing [2] | herbicidal effect (index per standard of Table 21), Echinochloa curs-galli (L.) Beauv. Var. crus-galli [3] | herbicidal effect (index per standard of Table 21), Setaria viridis (L.) Beauv. [4]
CC(C)C(SC1=NOC(C)(C)C1)c1cncnc1C(F)(F)F (racemic) [8-0012] | 5 | 5 | – | –
Cc1ccc(CS(=O)(=O)C2=NOC(C)(C)C2)s1 [1-0003] | 5 | 5 | 5 | 5
CC1(C)CC(S(=O)(=O)Cc2ccc(Cl)s2)=NO1 [1-0005] | 5 | 5 | 5 | 5
CC1(C)CC(S(=O)(=O)Cc2ccco2)=NO1 [1-0006] | – | – | 5 | 4
CC1(C)CC(S(=O)(=O)Cc2cc(Cl)sc2Cl)=NO1 [2-0005] | 5 | 5 | 5 | 5
Cc1sc(C)c(CS(=O)(=O)C2=NOC(C)(C)C2)c1C [2-0007] | – | – | 4 | 4
Cn1nc(C(F)F)c(CSC2=NOC(C)(C)C2)c1Cl [3-0020, 3-(5-chloro-3-difluoromethyl-1-methyl-1H-pyrazol-4-ylmethylthio)-5,5-dimethyl-2-isoxazoline] | – | – | 5 | 5
COc1nn(C)c(C(F)(F)F)c1CS(=O)(=O)C1=NOC(C)(C)C1 [3-0043] | – | – | 5 | 5
CCCCOc1c(CS(=O)(=O)C2=NOC(C)(C)C2)c(C(F)(F)F)nn1C [3-0048] | – | – | 5 | 5
Cn1nc(C(F)(F)F)c(CS(=O)(=O)C2=NOC(C)(C)C2)c1OCC1CC1 [3-0050] | – | – | 5 | 5
Cn1nc(C(F)(F)F)c(CS(=O)(=O)C2=NOC(C)(C)C2)c1OCC1CCCC1 [3-0051] | 5 | 5 | – | –
C#CCOc1c(CS(=O)(=O)C2=NOC(C)(C)C2)c(C(F)(F)F)nn1C [3-0053] | – | – | 5 | 5
Cn1nc(C(F)(F)F)c(CS(=O)(=O)C2=NOC(C)(C)C2)c1OCC(F)F [3-0056] | – | – | 5 | 5
Cn1nc(C(F)(F)F)c(CS(=O)(=O)C2=NOC(C)(C)C2)c1Oc1cccc(Cl)c1 [3-0061] | 5 | 5 | – | –
Cn1nc(C(F)(F)F)c(CS(=O)(=O)C2=NOC(C)(C)C2)c1Oc1ccc(Cl)cc1 [3-0063] | – | – | 5 | 5
CC1(C)CC(S(=O)(=O)Cc2c(C(F)(F)F)nn(C3CCCC3)c2Cl)=NO1 [3-0089] | 5 | 5 | – | –
CC1(C)CC(S(=O)(=O)Cc2c(Cl)nn(C3CCCC3)c2C(F)(F)F)=NO1 [3-0090] | 5 | 5 | – | –
CC1(C)CC(S(=O)(=O)Cc2c(C(F)(F)F)nn(CC3CCCC3)c2Cl)=NO1 [3-0100] | 5 | 5 | – | –
CC1(C)CC(S(=O)(=O)Cc2c(Cl)nn(CC3CCCC3)c2C(F)(F)F)=NO1 [3-0101] | 5 | 5 | – | –
CC1(C)CC(S(=O)(=O)Cc2c(C(F)(F)F)nn(CC3CCCCC3)c2Cl)=NO1 [3-0102] | 5 | 5 | – | –
CC1(C)CC(S(=O)(=O)Cc2c(Cl)nn(CC3CCCCC3)c2C(F)(F)F)=NO1 [3-0103] | 5 | 5 | – | –

Structure (SMILES) | Herbicidal effect index, Monochoria vaginalis (Burm. F.) Presl var. plantaginea (Roxb.) Solms-Laub. [1] | Herbicidal effect index, Echinochloa oryzicola Vasing [2] | herbicidal effect (index per standard of Table 21), Echinochloa curs-galli (L.) Beauv. Var. crus-galli [3] | herbicidal effect (index per standard of Table 21), Setaria viridis (L.) Beauv. [4]
CCOC(=O)Cn1nc(C(F)(F)F)c(CS(=O)(=O)C2=NOC(C)(C)C2)c1Cl [3-0136] | – | – | 5 | 5
CC1(C)CC(S(=O)(=O)Cc2c(C(F)(F)F)nn(CC(N)=O)c2Cl)=NO1 [3-0138] | – | – | 4 | 5
CC(=O)Cn1nc(C(F)(F)F)c(CS(=O)(=O)C2=NOC(C)(C)C2)c1Cl [3-0142] | – | – | 5 | 5
CC(=O)Cn1nc(Cl)c(CS(=O)(=O)C2=NOC(C)(C)C2)c1C(F)(F)F [3-0143] | – | – | 5 | 5
CC1(C)CC(S(=O)(=O)Cc2c(C(F)(F)F)nn(-c3ccccc3)c2OC(F)F)=NO1 [3-0160] | 5 | 5 | – | –
CC1(C)CC(S(=O)(=O)Cc2c(C(F)(F)F)nn(S(=O)(=O)c3ccccc3)c2Cl)=NO1 [3-0176] | 5 | 5 | – | –
CC(=O)n1nc(C(F)(F)F)c(CS(=O)(=O)C2=NOC(C)(C)C2)c1Cl [3-0177] | 5 | 5 | – | –
CC1(C)CC(S(=O)(=O)Cc2c(C(F)(F)F)nn(C(=O)c3ccccc3)c2Cl)=NO1 [3-0178] | 5 | 5 | – | –
Cc1onc(C(F)(F)F)c1CS(=O)(=O)C1=NOC(C)(C)C1 [4-0001, 5,5-dimethyl-3-(5-methyl-3-trifluoromethylisoxazol-4-ylmehtylsulfonyl)-2-isoxazoline] | 5 | 5 | – | –
CCOc1onc(C(F)(F)F)c1CS(=O)(=O)C1=NOC(C)(C)C1 [4-0006] | – | – | 5 | 5
CC1(C)CC(S(=O)(=O)Cc2nn(C(F)F)c3c2CCCC3)=NO1 [6-0001] | – | – | 5 | 5
CC1(C)CC(S(=O)(=O)Cc2c[n+]([O-])ccc2C(F)(F)F)=NO1 [7-0002, 5,5-dimethyl-3-(4-trifluoromethyl-pyridine-N-oxide-3-ylmethylsulfonyl)-2-isoxazoline] | – | – | 5 | 5
COc1c(CS(=O)(=O)C2=NOC(C)(C)C2)c(-c2ccccc2)cc[n+]1[O-] [7-0007] | – | – | 5 | 4
CCOc1ncnc(C(F)(F)F)c1CS(=O)(=O)C1=NOC(C)(C)C1 [8-0004] | – | – | 5 | 5
COc1ncnc(OC)c1CS(=O)(=O)C1=NOC(C)(C)C1 [8-0005] | – | – | 5 | 4
COc1nc(OC)c(CS(=O)(=O)C2=NOC(C)(C)C2)c(C(F)(F)F)n1 [8-0007] | – | – | 5 | 5
CC1(C)CC(S(=O)(=O)Cc2ccncc2)=NO1 [9-0003] | 5 | 5 | – | –
CC1(C)CC(S(=O)(=O)Cc2nc(Cc3ccccc3)no2)=NO1 [9-0007] | – | – | 4 | 4
CC1(C)CC(S(=O)(=O)Cc2cc3ccccc3s2)=NO1 [10-0002] | 4 | 5 | – | –
CC1(C)CC(S(=O)(=O)Cc2csc3ccc(Cl)cc23)=NO1 [10-0008] | 5 | 5 | – | –
CC1(C)CC(S(=O)(=O)Cc2sc3ccccc3c2Br)=NO1 [10-0011] | 5 | 5 | – | –

Source: US7238689B2, “Isoxazoline derivative and herbicide comprising the same as active ingredient” (Ihara Chemical Industry Co., Ltd., priority 2001, dated 2007)
